What was measured:
Format in all cases: functional
MOLT-4 [1] = experiment: Antiproliferative activity against human MOLT-4 cells assessed as […] cell proliferation at 10 uM incubated for 48 hrs by WST-1 assay relative to control
MOLT-4 [2] = experiment: Antiproliferative activity against human MOLT-4 cells assessed as […] cell proliferation at 10 uM incubated for 48 hrs in presence of 2 uM of CDDP by WST-1 assay relative to control
Jurkat [3] = experiment: Antiproliferative activity against human Jurkat cells assessed as […] cell proliferation at 10 uM incubated for 48 hrs by WST-1 assay relative to control
Jurkat [4] = experiment: Antiproliferative activity against human Jurkat cells assessed as […] cell proliferation at 10 uM incubated for 48 hrs in presence of 2 uM of CDDP by WST-1 assay relative to control
A2780 [5] = experiment: Antiproliferative activity against human A2780 cells assessed as […] cell proliferation at 10 uM incubated for 48 hrs by WST-1 assay relative to control
A2780 [6] = experiment: Antiproliferative activity against human A2780 cells assessed as […] cell proliferation at 10 uM incubated for 48 hrs in presence of 2 uM of CDDP by WST-1 assay relative to control
MCF7 [7] = experiment: Antiproliferative activity against human MCF7 cells assessed as […] cell proliferation at 10 uM incubated for 48 hrs by WST-1 assay relative to control
MCF7 [8] = experiment: Antiproliferative activity against human MCF7 cells assessed as […] cell proliferation at 10 uM incubated for 48 hrs in presence of 10 uM of CDDP by WST-1 assay relative to control
A549 [9] = experiment: Antiproliferative activity against human A549 cells assessed as […] cell proliferation at 10 uM incubated for 48 hrs by WST-1 assay relative to control
A549 [10] = experiment: Antiproliferative activity against human A549 cells assessed as […] cell proliferation at 10 uM incubated for 48 hrs in presence of 15 uM of CDDP by WST-1 assay relative to control
SAOS-2 [11] = experiment: Antiproliferative activity against human SAOS-2 cells assessed as […] cell proliferation at 10 uM incubated for 48 hrs by WST-1 assay relative to control
SAOS-2 [12] = experiment: Antiproliferative activity against human SAOS-2 cells assessed as […] cell proliferation at 10 uM incubated for 48 hrs in presence of 15 uM of CDDP by WST-1 assay relative to control
PANC-1 [13] = experiment: Antiproliferative activity against human PANC-1 cells assessed as […] cell proliferation at 10 uM incubated for 48 hrs by WST-1 assay relative to control
PANC-1 [14] = experiment: Antiproliferative activity against human PANC-1 cells assessed as […] cell proliferation at 10 uM incubated for 48 hrs in presence of 15 uM of CDDP by WST-1 assay relative to control
HT-29 [15] = experiment: Antiproliferative activity against human HT-29 cells assessed as […] cell proliferation at 10 uM incubated for 48 hrs by WST-1 assay relative to control
HT-29 [16] = experiment: Antiproliferative activity against human HT-29 cells assessed as […] cell proliferation at 10 uM incubated for 48 hrs in presence of 15 uM of CDDP by WST-1 assay relative to control
HeLa [17] = experiment: Antiproliferative activity against human HeLa cells assessed as […] cell proliferation at 10 uM incubated for 48 hrs by WST-1 assay relative to control
HeLa [18] = experiment: Antiproliferative activity against human HeLa cells assessed as […] cell proliferation at 10 uM incubated for 48 hrs in presence of 15 uM of CDDP by WST-1 assay relative to control

| Structure (SMILES) | Activity (MOLT-4 [1]) [%] | Activity (MOLT-4 [2]) [%] | Activity (Jurkat [3]) [%] | Activity (Jurkat [4]) [%] | Activity (A2780 [5]) [%] | Activity (A2780 [6]) [%] | Activity (MCF7 [7]) [%] | Activity (MCF7 [8]) [%] | Activity (A549 [9]) [%] | Activity (A549 [10]) [%] | Activity (SAOS-2 [11]) [%] | Activity (SAOS-2 [12]) [%] | Activity (PANC-1 [13]) [%] | Activity (PANC-1 [14]) [%] | Cell viability relative to control (HT-29 [15]) [%] | Activity (HT-29 [16]) [%] | Activity (HeLa [17]) [%] | Activity (HeLa [18]) [%] |
| --- | --- | --- | --- | --- | --- | --- | --- | --- | --- | --- | --- | --- | --- | --- | --- | --- | --- | --- |
| CCN1CCN(C(=O)c2cc3cc(-c4ccc(S(C)(=O)=O)cc4)cnc3[nH]2)CC1 | 90 | 58 | 90 | 58 | 90 | 58 | 90 | 58 | 90 | 58 | 90 | 58 | 90 | 58 | 90 | 58 | 90 | 58 |
| CC(C)S(=O)(=O)c1ccc(-c2cnc3[nH]c(C(=O)Nc4ccc(N(C)C)cc4)cc3c2)cc1 | 108 | 68 | 108 | 68 | 108 | 68 | 108 | 68 | 108 | 68 | 108 | 68 | 108 | 68 | 108 | 68 | 108 | 68 |
| CCN1CCN(C(=O)c2c[nH]c3ncc(-c4ccc(S(=O)(=O)C(C)C)cc4)cc23)CC1 | 100 | 66 | 100 | 66 | 100 | 66 | 100 | 66 | 100 | 66 | 100 | 66 | 100 | 66 | 100 | 66 | 100 | 66 |
| CCN1CCN(C(=O)c2c[nH]c3ncc(-c4ccc(S(C)(=O)=O)cc4)cc23)CC1 | 95 | 70 | 95 | 70 | 95 | 70 | 95 | 70 | 95 | 70 | 95 | 70 | 95 | 70 | 95 | 70 | 95 | 70 |
| CS(=O)(=O)c1ccc(-c2cc(C(=O)NCc3ccccc3)n[nH]2)cc1 | 95 | 63 | 95 | 63 | 95 | 63 | 95 | 63 | 95 | 63 | 95 | 63 | 95 | 63 | 95 | 63 | 95 | 63 |
| CC(C)S(=O)(=O)c1ccc(-c2cnc3[nH]cc(C(=O)N4CCc5ccccc5C4)c3c2)cc1 | 85 | 66 | 85 | 66 | 85 | 66 | 85 | 66 | 85 | 66 | 85 | 66 | 85 | 66 | 85 | 66 | 85 | 66 |
| CCN(CC)c1ccc(CNC(=O)c2n[nH]c3ncc(-c4ccc(S(=O)(=O)C(C)C)cc4)cc23)cc1 | 83 | 57 | 83 | 57 | 83 | 57 | 83 | 57 | 83 | 57 | 83 | 57 | 83 | 57 | 83 | 57 | 83 | 57 |
| CC(C)S(=O)(=O)c1ccc(-c2cnc3[nH]c(C(=O)Nc4ccccc4)cc3c2)cc1 | 103 | 65 | 103 | 65 | 103 | 65 | 103 | 65 | 103 | 65 | 103 | 65 | 103 | 65 | 103 | 65 | 103 | 65 |
| CC(C)S(=O)(=O)c1ccc(-c2cc(C(=O)Nc3ccccc3)n[nH]2)cc1 | 107 | 70 | 107 | 70 | 107 | 70 | 107 | 70 | 107 | 70 | 107 | 70 | 107 | 70 | 107 | 70 | 107 | 70 |
| CC(C)S(=O)(=O)c1ccc(-c2cc(C(=O)N3CCC(c4ccccc4)CC3)n[nH]2)cc1 | 84 | 62 | 84 | 62 | 84 | 62 | 84 | 62 | 84 | 62 | 84 | 62 | 84 | 62 | 84 | 62 | 84 | 62 |
| CS(=O)(=O)c1ccc(-c2cnc(N)c(C(=O)Nc3ccccc3)n2)cc1 | 66 | 16 | 66 | 16 | 66 | 16 | 66 | 16 | 66 | 16 | 66 | 16 | 66 | 16 | 66 | 16 | 66 | 16 |
| CCN(CC)c1ccc(CNC(=O)c2cc(-c3ccc(S(=O)(=O)C(C)C)cc3)[nH]n2)cc1 | 78 | 62 | 78 | 62 | 78 | 62 | 78 | 62 | 78 | 62 | 78 | 62 | 78 | 62 | 78 | 62 | 78 | 62 |
| CC(C)S(=O)(=O)c1ccc(-c2cnc3[nH]c(C(=O)N4CCC(c5ccccc5)CC4)cc3c2)cc1 | 92 | 64 | 92 | 64 | 92 | 64 | 92 | 64 | 92 | 64 | 92 | 64 | 92 | 64 | 92 | 64 | 92 | 64 |
